For 5 molecules, IC50 results are on record in BindingDB's records for doi:10.3109/14756360903389872 (Medical University, 2010).

Holding throughout (assay): Antiamidolytic Assay
One assay concerns the target Plasminogen (Homo sapiens, UniProt P00747). As for the experimental part: (§1) Quantities of 0.2 mL of examined preparation (as control, 0.15 M NaCl), buffer, and 0.1 mL of enzyme solution were mixed together. The mixture was incubated at 37°C for 3 min then the synthetic substrate solution in the same buffer was added. After 20 min of incubation, the reaction was stopped by adding 0.1 mL of 50% acetic acid, and the absorbance of the released p-nitroaniline was measured at 405 nm.

The next assay has as its target Serine protease 1 (Homo sapiens, UniProt P07477). How it is done: as §1
The target of assay [1] is Urokinase-type plasminogen activator (Homo sapiens, UniProt P00749). As for the experimental part:
as §1

Sequence of Plasminogen (P00747 97-580 limits assumed): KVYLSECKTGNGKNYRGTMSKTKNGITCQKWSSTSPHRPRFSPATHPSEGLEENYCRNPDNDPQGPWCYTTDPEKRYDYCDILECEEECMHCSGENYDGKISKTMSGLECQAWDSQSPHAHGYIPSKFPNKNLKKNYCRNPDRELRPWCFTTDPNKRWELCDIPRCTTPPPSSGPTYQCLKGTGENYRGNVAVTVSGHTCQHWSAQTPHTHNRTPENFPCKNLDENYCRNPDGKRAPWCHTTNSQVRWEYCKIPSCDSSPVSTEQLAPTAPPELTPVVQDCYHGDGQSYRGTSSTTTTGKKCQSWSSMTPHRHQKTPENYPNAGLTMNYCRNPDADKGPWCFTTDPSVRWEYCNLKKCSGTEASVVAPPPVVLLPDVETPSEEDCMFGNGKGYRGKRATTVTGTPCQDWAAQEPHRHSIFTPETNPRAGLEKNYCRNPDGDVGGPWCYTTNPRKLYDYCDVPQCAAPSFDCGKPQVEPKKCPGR
Sequence of Plasminogen (P00747 581-810 limits assumed): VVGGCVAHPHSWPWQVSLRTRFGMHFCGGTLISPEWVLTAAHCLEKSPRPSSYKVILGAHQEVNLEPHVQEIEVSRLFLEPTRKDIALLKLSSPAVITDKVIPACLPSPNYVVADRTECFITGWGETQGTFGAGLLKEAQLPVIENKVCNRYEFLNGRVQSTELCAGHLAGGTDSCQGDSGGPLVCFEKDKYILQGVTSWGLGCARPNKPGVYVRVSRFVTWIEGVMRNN
Sequence of Serine protease 1 (P07477 whole entry): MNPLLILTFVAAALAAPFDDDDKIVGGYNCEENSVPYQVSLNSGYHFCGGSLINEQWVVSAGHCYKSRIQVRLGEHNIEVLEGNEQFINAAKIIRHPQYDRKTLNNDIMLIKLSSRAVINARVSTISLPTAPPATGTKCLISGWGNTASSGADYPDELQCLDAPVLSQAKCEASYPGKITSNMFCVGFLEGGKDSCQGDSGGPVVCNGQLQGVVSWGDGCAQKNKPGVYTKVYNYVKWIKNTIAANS

The molecule `Nc1cccc(C(=O)Nc2cccc(C(=O)NCCCNC(=O)c3cccc(NC(=O)c4cccc(N)c4)c3)c2)c1` [Carbocyclic minor groove binder, 4] returned an IC50 on Plasminogen of 20 µM.

For the molecule `N=C(N)c1ccc(OCCCCCOc2ccc(C(=N)N)cc2)cc1` [4-[5-(4-carbamimidoylphenoxy)pentoxy]benzenecarboximidamide;2-oxidanylethanesulfonic acid], the IC50 on Serine protease 1 is 100 µM; at Plasminogen, < 10 µM; in assay [1] it was 20 µM.

`Nc1cccc(C(=O)Nc2cccc(C(=O)NCCCCNC(=O)c3cccc(NC(=O)c4cccc(N)c4)c3)c2)c1` [Carbocyclic minor groove binder, 5]: the IC50 against Plasminogen is 20 µM; in assay [1], 10 µM.

As to `Cn1cc(NC(=O)c2cc(NC(=O)CN=C(N)N)cn2C)cc1C(=O)NCCC(=N)N`, the IC50 against Plasminogen was 40 µM; in assay [1], 30 µM.

As for `Nc1cccc(C(=O)Nc2cccc(C(=O)NCCCCCNC(=O)c3cccc(NC(=O)c4cccc(N)c4)c3)c2)c1` [Carbocyclic minor groove binder, 6], the IC50 against Serine protease 1 turned out to be 20 µM; on Plasminogen, 10 µM; in assay [1], 14 µM.

Broadly, the IC50 is the midpoint of a concentration-inhibition curve. The low end stands for greater potency in that assay, the high end for weaker potency in that assay.
